Data reported in patent publication US5677296A, “Carbamic acid derivatives of substituted dibenzoxazepine compounds, pharmaceutical compositions and methods of use” (G.D. Searle & Co., priority 1995, dated 1997).

Experiments:
[1] = tested on: prostaglandin E2-induced contractions of guinea pig ileum; assay: Prostaglandin (PGE) Antagonism Assay (inhibition of prostaglandin E2-induced contractions of segments of guinea pig ileum); details: for PGE2 antagonism in guinea pig ileum: Dose Ratio at 3 × 10^-6 M: test compound 3 × 10^-6 M, 30 min incubation, dose ratio of PGE2 EC50 values, average where more than one determined
Experimental: (b) Prostaglandin (PGE) Antagonism Assay
In order to determine the effectiveness of several of the compounds of the present invention ("test compounds") as prostaglandin E2 antagonists,a prostaglandin antagonism assay was conducted, as described below, to determine the ability of these compounds to inhibit prostaglandin E2 -induced contractions of segments of guinea pig ileum.
Male albino guinea pigs weighing 200 to 500 grams were sacrificed by cervical dislocation. The ilea were then quickly removed from the guinea pigs and placed in a modified Tyrode solution, a solution which is known to those skilled in the art, containing one-half of the usual amount of magnesium ions.
Segments of ileum about 2 cm long were then cut and mounted in a 10 mL tissue bath containing the modified Tyrode solution. The solution was maintained at 37° C. and aerated with a gaseous mixture of 95% oxygen and 5% carbon dioxide. Data for a control prostaglandin E2 dose response curve plotting concentration of prostaglandin E2 versus the intensity of contractions, detected isotonically, was then obtained by experimentally adjusting the dose of the prostaglandin E2 being injected into the tissue bath, in a manner known by those of skill in the art.
Solutions or suspensions containing an initial concentration (3 micromolar) of a test compound in modified Tyrode solution ("test solutions/suspensions") were then separately substituted for the control bath solution. Each test solution/suspension was then kept in constant contact with the ileum tissue, except for brief periods to drain the bath in preparation for rinsing with fresh test solution/suspension. A second prostaglandin E2 dose response curve was then generated for prostaglandin E2 in the presence of a test compound.
A control dose response curve is produced in isolated segments of guinea pig ileum mounted in an automated apparatus with six concentrations of prostaglandin E2. A solution or suspension of test compound is substituted for the control bathing solution and is incubated for thirty minutes. An additional prostaglandin E2 dose response curve is then performed in the presence of the test compound. A dose ratio is calculated from the EC50 values obtained from duplicate replications on each concentration of the test compound.
A dose ratio of EC50 doses was calculated from the results of each test in a manner known by those of skill in the art, and described above.
The dose ratios reported in Table 1 represent an average of multiple dose ratios for those compounds for which more than one dose ratio was determined. The compounds of the present invention which were tested in this assay, and for which results are presented in Table 1, correspond to the particular examples specified in Table 1.
The pA2 value (a statistical constant which is a common measure of expressing the potency of a particular drug as a competitive antagonist), rather than the dose ratio, was calculated for the test compound shown and described in Example 6 by schild plot calculations, as described by H. O. Schild, "pA, A New Scale for the Measurement of Drug Antagonism," Br. J. Pharmacol, 2, 189 (1947), and is reported in Table 1.

[2] = tested on: phenylbenzoquinone (PBQ)-induced writhing in mice; assay: Writhing Assay (PBQ-induced writhing in mice, analgesic activity); type: in vivo, mouse (Charles River male albino mice); details: 30 mpk, i.g., 30 min before PBQ i.p., fraction of mice
Excerpt: The Writhing Assay is one of the most widely-used experimental procedures for measuring the analgesic activity of different narcotic and nonnarcotic analgesic agents, and involves the continuous, chemically-induced pain of visceral origin to an animal, such as a mouse or rat. [Gyires et al., Arch. int. Pharmacodyn, 267, 131-140 (1984); C. Vander Wende et al., Fed. Proc., 15, 494 (1956); Koster et al., Fed. Proc., 18, 412 (1959); and Witken et al., J. Pharmacol. exp. Ther., 133, 400-408 (1961).] Chemicals which may be used to induce this pain include phenylbenzoquinone (PBQ) and acetic acid. As a result of the chemical irritation to the animal, a characteristic stretching and writhing of the animal (dorsiflexion of the animal's back, extension of its hindlimbs and the strong contraction of its abdominal musculature) will generally occur. […] Drugs which reduce the number of writhes of the animal appear to restore the normal nociceptive threshold of the animal.
Charles River male albino mice, weighing 20 to 30 grams, were used in this assay.
Thirty minutes after intragastric administration to ten mice of 30 mg per kilogram of body weight of a compound of the present invention ("test compound"), […] per 10 g of body weight of a 0.025% w/v solution of PBQ was injected intraperitoneally into each mouse. Ten mice which were given saline in place of a test compound of the invention were used as a control group.
Five minutes later, each mouse was individually placed into a glass beaker for observation, and the number of writhes occurring during the following ten-minute period was counted.
A test compound was considered to have produced analgesia in a mouse if, in accordance with the conditions set forth above, and under the test criteria employed for this assay, after the administration of 30 mg per kilogram of body weight of a compound of the present invention to the mouse, the number of writhes elicited by a mouse injected with PBQ was equal to, or less than, one-half the median number of writhes recorded for the saline-treated control group of mice that day, as described by Taber in "Predictive Value of Analgesic Assays in Mice and Rats," Advances in Biochemical Psychopharmacology, 8, 191 (1974).
The results for the particular compounds of the present invention analyzed in this assay, and discussed in the examples identified below which correspond thereto, are presented in Table 1 hereinbelow as fractions under the heading "WRITHING ASSAY." The fractions indicate the number of mice out of eight or ten in which a test compound produced analgesia.
The standard initial screening dose of a test compound employed in this assay was 30 mpk […]. Generally, if this initial screening dose of the test compound produced analgesia in seven out of ten mice, then the effect of additional doses of the test compound on the writhing response was evaluated, and then the ED50 dose was generally calculated. (The slopes of the dose-response curves for all test compounds analyzed were compared as described by Tallarida and Murray, Manual of Pharmacologic Calculations, Page 11 (Springer Verlag, New York, 1981)).
All ED50 doses calculated are also presented in Table 1 hereinbelow under the heading "WRITHING ASSAY," but as whole numbers.

Compound	PGE2 antagonism in guinea pig ileum: Dose Ratio at 3 × 10^-6 M [1]	Writhing assay: number of mice out of eight or ten in which test compound produced analgesia [2]	further results
O=C1OC(c2cccnc2)C2c3ccccc3Oc3ccc(Cl)cc3N12 (mixture of isomers) [Compounds 9a and 9b (Mixture), 6-chloro-1,13b-dihydro-1-(3-pyridyl)-3H-dibenz[b,f]-oxazolo[3,4-d][1,4]oxazepin-3-one]	1.5	–	–
O=C1O[C@@H](c2ccncc2)[C@@H]2c3ccccc3Oc3ccc(Cl)cc3N12 (relative stereo) [Compound 6, trans-6-chloro-1,13b-dihydro-1-(4-pyridyl)-3H-dibenz-[b,f]oxazolo[3,4-d][1,4]oxazepin-3-one]	–	5/10	PGE2 antagonism in guinea pig ileum: PA2 Value ([1]; Schild plot): 7.15
O=C1O[C@@H](c2ccncc2)[C@H]2c3ccccc3Oc3ccc(Cl)cc3N12 (relative stereo) [Compound 7, cis-6-chloro-1,13b-dihydro-1-(4-pyridyl)-3H-dibenz[b,f]oxazolo-[3,4-d][1,4]oxazepin-3-one]	1.5	9/10	–
O=C1O[C@@H](c2ccccn2)[C@@H]2c3ccccc3Oc3ccc(Cl)cc3N12 (relative stereo) [Compound 11, cis-6-chloro-1,13b-dihydro-1-(2-pyridyl)-3H-dibenz[b,f]oxazolo[3,4-d][1,4]-oxazepin-3-one]	8.6	2/8	–
COC(=O)c1ccc([C@@H]2OC(=O)N3c4cc(Cl)ccc4Oc4ccccc4[C@@H]23)cc1 (relative stereo) [Compound 17, 6-chloro-1,13b-dihydro-1-(4-carboxymethylphenyl)-3H-dibenz[b,f]-oxazolo[3,4-d][1,4]-oxazepin-3-one]	2.3	–	–
O=C1OC(c2ccccc2)C2c3ccccc3Oc3ccc(Cl)cc3N12 (single isomer, unassigned) [Compound 3, 6-chloro-1,13b-dihydro-1-phenyl-3H-dibenz[b,f]oxazolo-[3,4-d][1,4]oxazepin-3-one]	43.6	3/10	–
O=C1OC(c2ccccc2)C2c3ccccc3Oc3ccc(Cl)cc3N12 (single isomer, unassigned) [Compound 4, 6-chloro-1,13b-dihydro-1-phenyl-3H-dibenz[b,f]oxazolo-[3,4-d][1,4]oxazepin-3-one]	0.87	3/10	–
O=C1N2C=Cc3ccccc3C2C2c3ccccc3Oc3ccc(Cl)cc3N12 (single isomer, unassigned) [Compound 28, 12-Chloro-15H-benz[b]isoquino[2',1':3,4]imidazo-1,5-d][benzoxazepin-15-one]	3.5	–	–
O=C1OC(c2ccncc2)c2c(Cl)ccc3c2N1Cc1ccccc1O3 (single isomer, unassigned; (+)) [Compound 5a, (+)-4-chloro-3-(4-pyridyl)-1H,3H,12H-[3,1]benzoxazino-[8,1-b,c][1,4]benzoxazepin-1-one]	5.2	–	Writhing assay: number of mice out of eight or ten in which test compound produced analgesia ([2]; 30 mg/kg): 8/10
O=C1OC(c2cccnc2)c2c(Cl)ccc3c2N1Cc1ccccc1O3 (centres unmarked) [Compound 8, 4-chloro-3-(3-pyridyl)-1H,3H,12H-[3,1]-benzoxazino-[8,1-b,c][1,4]benzoxazepin-1-one]	–	5/10	–
O=C1OC(c2ccsc2)C2c3ccccc3Oc3ccc(Cl)cc3N12 (centres unmarked) [Compound 12, 6-chloro-1,13b-dihydro-1-(3-thienyl)-3H-dibenz[b,f]oxazolo[3,4-d][1,4]-oxazepin-3-one]	1.9	–	–
O=C1OC(c2ccco2)c2c(Cl)ccc3c2N1Cc1ccccc1O3 (centres unmarked) [Compound 13, 4-chloro-3-(-2-furyl)-1H,3H,12H-[3,1]-benzoxazino-[8,1-b,c][1,4]benzoxazepin-1-one]	4.4	–	–
O=C(O)Cc1ccc(C2OC(=O)N3c4cc(Cl)ccc4Oc4ccccc4C23)cc1 (centres unmarked) [Compound 16, 6-chloro-1,13b-dihydro-1-(-4-carboxymethlyphenyl)-3H-dibenz[b,f]-oxazolo-[3,4-d][1,4]oxazepin-3-one]	2.4	–	–
O=C1OC2(CCC2)C2c3ccccc3Oc3ccc(Cl)cc3N12 (centres unmarked) [Compound 21, 6-Chloro-1,13b-dihydro-3H-spiro[dibenz[b,f]oxazolo-[3,4-d][1,4]oxazepin-1,1'-cyclobutan]-3-one]	0.9	–	–
O=C1OC2(CCCC2)C2c3ccccc3Oc3ccc(Cl)cc3N12 (centres unmarked) [Compound 22, 6-chloro-1,13H-spiro[dibenz[b,f]-oxazolo3,4-d][1,4]oxazepin-1,1'-cyclopentane-3-one]	2.5	–	–
O=C1N2CCc3ccccc3C2C2c3ccccc3Oc3ccc(Cl)cc3N12 (centres unmarked) [Compound 29, 12-Chloro-17,18-dihydro-15H-benz[b]isoquino[2',1';3,4]-imidazo[1,5-d][1,4]benzoxazepin-15-one]	3.8	–	–
O=c1[nH]c(-c2ccccc2)c2n1-c1cc(Cl)ccc1Oc1ccccc1-2 [Compound 30, 6-Chloro-1-phenyl-2H-dibenz[b,f]imidazo[1,5-d]-[1,4]oxazepin-3-one]	2.1	–	–
Cn1c(-c2ccccc2)c2n(c1=O)-c1cc(Cl)ccc1Oc1ccccc1-2 [Compound 31]	1.4	–	–
O=C1C2c3ccccc3Oc3ccc(Cl)cc3N2C(=O)N1c1ccccc1 (centres unmarked) [Compound 33, 6-Chloro-2-phenyl-2,13bH-dibenz[b,f]imidazo-[1,5-d][1,4]oxazepin-1,3-dione]	4.3	–	–
O=C1C2c3ccccc3Oc3ccc(Cl)cc3N2C(=O)N1Cc1ccccc1 (centres unmarked) [Compound 34, 6-Chloro-2-phenylmethyl-2H,13bH-dibenz[b,f]-imidazo-[1,5-d][1,4]oxazepin-1,3-dione]	3.6	–	–
